Data reported in patent publication US8975259B2, “Compositions and methods for inhibiting G protein signaling” (University of Rochester, priority 2007, dated 2015).

Columns and labels:
[1] = test system: isolated adult mouse cardiomyocytes; test: Contractility of isolated adult mouse cardiomyocytes; assay type: cell-based; settings: result in words
Description: Pretreatment with the general β-AR antagonist, propranolol, abolishes the effects of M119 and Iso on cardiomyocyte contractility.
The above data led to investigations that M119 plays a positive functional role in the heart, due in part to its inhibition of Gβγ-GRK2 interactions. Prior to pursuing in vivo studies with M119, the role of M119 affecting contractility was evaluated by assessment of isolated adult mouse cardiomyocyte contractility at baseline and in response to β-AR stimulation.
Mechanical properties of ventricular myocytes are assessed by an IonOptix Myocam system (IonOptix Inc., Milton, Mass., U.S.A.). Myocytes are superfused (at 25° C.) with Tyrodes, cells are pre-loaded in culture medium for 20 minutes with Fura-2, for concurrent calcium flux and myocyte contractility following field stimulation at 0.5 Hz.

[2] = test system: Rac1 activation in differentiated HL60 cells; test: fMLP-induced Rac1 activation in differentiated HL60 cells; assay type: cell-based, human; settings: 10 μM compound, 1 μM fMLP; result in words
Description: (§1) Differentiated HL60 cells stably expressing GFP-PH-Akt were challenged with 250 nM fMLP in the presence and absence of 10 μM concentrations of the indicated compounds. Translocation of GFP-PH-Akt to the plasma membrane was evaluated by Western blot. Quantification shown below. ***, P<0.001 analysis of variance (ANOVA) is statistically different from control (PBS+vehicle). […] Differentiated HL60 cells were challenged with 1 μM fMLP in the presence and absence of 10 μM concentrations of the indicated compounds. Rac1 activation was assessed by Western blots of affinity-precipitated GTP-Rac1 from HL60 cell lysates. Western blot shown is representative of three independent experiments and quantitation contains data pooled from three independent experiments±S.E.M. *P<0.05 ANOVA is statistically different from control (DMSO only). n=3. […] Differentiated HL60 cells were challenged with 250 nM fMLP or 250 nM PMA in the presence and absence of 10 μM compounds or 100 nM Wortmannin (Wtmn). NADPH oxidase activity was determined after reaction with NBT by absorbance at 540 nm. Data shown is contains data pooled from three independent experiments (each in duplicate)±S.E.M. *, P<0.05 ANOVA is statistically different from control (DMSO only).
HL60 cells (differentiated for 4 days) were washed with and resuspended in NaCl buffer to a final concentration of 20×10^6 cells/ml. Cells (10×10^6/reaction) were pretreated with 10 μMGβγ inhibitor (in DMSO) for 10 min before challenge with 1 μM fMLP for 90 s in a 37° C. water bath and then immediately transferred to an ice-water bath. Cells were recovered by centrifugation at 500 g and washed two times with ice-cold Tris-buffered saline, pH 7.4. […] Chemiluminescence was analyzed using a charge-coupled device camera in a UVP Epi-Chem II Darkroom imaging system. Results were expressed as percent fMLP-stimulated GTP Rac1 normalized to total Rac1 with the background subtracted.

[3] = test system: NADPH oxidase activity in fMLP-challenged HL60 cells; test: fMLP-dependent superoxide production (NBT) in differentiated HL60 cells; assay type: cell-based, human; settings: 10 μM compounds or 100 nM wortmannin, 250 nM fMLP; result in words
Description: as §1
The nitro blue tetrazolium (NBT) method was used to assess the effects of Gβγ inhibitors on NADPH oxidase activity. HL60 cells (differentiated for 4 days) were washed with and resuspended in HBSS containing calcium and magnesium (Cellgro; Mediatech, Herndon Va.) to a final concentration of 2×10^6 cells/ml. Cells (1×10^6/reaction) were pretreated with 10 μMGβγ inhibitor compound (in DMSO) or 100 nM wortmannin (Sigma Aldrich) for 10 min at 37° C. before the addition of NBT (25 μl of 10 mg/ml in methanol) and then incubated or an additional 5 min at 37° C. All treatments contained the same final concentration of DMSO. […] Cell pellets were then resuspended in 200 μl of DMSO, transferred to a 96-well plate, and absorbance was measured at 540 nm. […]

| SMILES | effect on cardiomyocyte contractility at baseline and with isoproterenol [1] | effect on fMLP-induced Rac1 activation [2] | effect on fMLP-dependent superoxide production [3] |
| --- | --- | --- | --- |
| O=C(O)C1CCCCC1c1c2ccc(=O)c(O)c-2oc2c(O)c(O)ccc12 (stereo not drawn) [Compound M119, cyclohexanecarboxylic acid, 2-(4,5,6-trihydroxy-3-oxo-3H-xanthen-9-yl)-(9cl)] | enhanced | inhibited | significantly inhibited |
| O=C(O)c1ccccc1-c1c2ccc(=O)c(O)c-2oc2c(O)c(O)ccc12 (racemic) [Gallein] | significant positive effects | inhibited | significantly inhibited |
| O=C(O)C1CCCCC1c1c2ccc(=O)cc-2oc2cc(O)ccc12 (stereo not drawn) [Compound M119B] | no effect | little effect | did not significantly affect |
